Numbered stars: 1 amine (or outer) side, 2 acyl side, 3 side chain; on linkers, the order of the positions; unused ones are H or OH. Bridge positions count the residues as written; N and C are the ends. Square brackets hold non-standard residues; d marks the D form. Side chains are listed from the residue outwards. Peptide text beside a SMILES is read from it. * marks the point of attachment. C20 diacid = O=C(O)CCCCCCCCCCCCCCCCCCC(=O)*; γGlu = O=C(O)[C@H](CCC(=O)[*:2])N[*:1]; Hyp = O=C(O)[C@@H]1C[C@@H](O)CN1; AEEA = NCCOCCOCC(=O)O
molecular target: T1, human amylin receptor (Homo sapiens, UniProt O60896+P30988); test: Luciferase assay of amylin derivatives in amylin receptor/CRE-luc CHO cell line; format: cell-based; details: CHO-K1/Ga15/AMY3 CRE-luc cells, 24 hours incubation, F12 medium containing 10% FBS; read-out: EC50
T1 construct: host or cells: CHO-K1/Ga15/AMY3 cells, further stably transfected with a CRE-luciferase plasmid
T1 sequence (P30988 25-474): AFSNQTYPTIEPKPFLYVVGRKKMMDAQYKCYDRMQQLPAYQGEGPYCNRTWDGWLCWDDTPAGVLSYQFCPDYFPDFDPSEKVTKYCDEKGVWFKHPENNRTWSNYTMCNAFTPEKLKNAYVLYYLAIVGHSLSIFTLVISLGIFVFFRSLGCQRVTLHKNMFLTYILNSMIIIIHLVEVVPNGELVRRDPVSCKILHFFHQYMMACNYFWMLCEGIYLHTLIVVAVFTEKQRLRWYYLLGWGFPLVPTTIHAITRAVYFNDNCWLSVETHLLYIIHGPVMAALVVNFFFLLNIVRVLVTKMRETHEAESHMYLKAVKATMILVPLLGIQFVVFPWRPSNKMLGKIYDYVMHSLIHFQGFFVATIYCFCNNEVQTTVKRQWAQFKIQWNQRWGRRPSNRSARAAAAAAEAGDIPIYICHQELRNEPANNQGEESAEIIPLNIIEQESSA
T1 sequence (O60896 24-148 partner): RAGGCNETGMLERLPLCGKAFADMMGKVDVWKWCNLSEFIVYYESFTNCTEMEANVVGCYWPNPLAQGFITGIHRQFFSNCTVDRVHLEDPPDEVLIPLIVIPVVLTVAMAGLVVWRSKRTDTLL
Description: The experiment was intended to detect the activity or efficacy of the amylin derivatives on a human amylin receptor in vitro by luciferase assay.
50 μL of growth medium (F12 medium containing 10% FBS) was added into each well of a white 96-well plate, and the stably transfected amylin/CRE-lue CHO cells were inoculated into the white 96-well plate at a density of about 20,000 cells/well for activity determination.

Row | Structure (SMILES) | EC50 [pM]
1 | CC[C@H](C)[C@H](NC(=O)[C@@H]1CCCN1C(=O)[C@H](CCCCNC(=O)CC[C@H](NC(=O)CCCCCCCCCCCCCCCCCCC(=O)O)C(=O)O)NC(=O)[C@H](CC(C)C)NC(=O)[C@H](CC(N)=O)NC(=O)[C@H](CC(N)=O)NC(=O)[C@H](CO)NC(=O)[C@H](CO)NC(=O)[C@H](Cc1c[nH]cn1)NC(=O)[C@H](CCCNC(=N)N)NC(=O)[C@H](CC(C)C)NC(=O)[C@H](Cc1ccccc1)NC(=O)[C@H](CC(=O)O)NC(=O)[C@H](C)NC(=O)[C@H](CC(C)C)NC(=O)[C@H](CCCNC(=N)N)NC(=O)[C@H](CCC(N)=O)NC(=O)[C@@H](NC(=O)[C@H](C)NC(=O)[C@@H]1CSSC[C@H](NC(=O)[C@@H](N)CC(=O)O)C(=O)N[C@@H](CC(N)=O)C(=O)N[C@@H]([C@@H](C)O)C(=O)N[C@@H](C)C(=O)N[C@@H]([C@@H](C)O)C(=O)N1)[C@@H](C)O)C(=O)N[C@@H](CC(C)C)C(=O)N1CCC[C@H]1C(=O)N1CCC[C@H]1C(=O)N[C@H](C(=O)N[C@@H](CC(N)=O)C(=O)N[C@H](C(=O)NCC(=O)N[C@@H](CO)C(=O)N[C@@H](CC(N)=O)C(=O)N[C@H](C(=O)N1C[C@H](O)C[C@H]1C(N)=O)[C@@H](C)O)C(C)C)[C@@H](C)O [PD079] (H-DCNTATCATQRLADFLRHSSNNLK([γGlu-C20 diacid])PILPPTNVGSNT[Hyp]-NH2; disulfide 2-7) | 131
2 | CC[C@H](C)[C@H](NC(=O)[C@@H]1CCCN1C(=O)[C@H](CCCCNC(=O)CC[C@H](NC(=O)CCCCCCCCCCCCCCCCCCC(=O)O)C(=O)O)NC(=O)[C@H](CC(C)C)NC(=O)[C@H](CC(N)=O)NC(=O)[C@H](CC(N)=O)NC(=O)[C@H](CO)NC(=O)[C@H](CO)NC(=O)[C@H](Cc1c[nH]cn1)NC(=O)[C@H](CCCNC(=N)N)NC(=O)[C@H](CC(C)C)NC(=O)[C@H](Cc1ccccc1)NC(=O)[C@H](CC(=O)O)NC(=O)[C@H](C)NC(=O)[C@H](CC(C)C)NC(=O)[C@H](CCCNC(=N)N)NC(=O)[C@H](CCC(N)=O)NC(=O)[C@@H](NC(=O)[C@H](C)NC(=O)[C@@H]1CSSC[C@H](NC(=O)[C@@H](N)CCC(=O)O)C(=O)N[C@@H](CC(N)=O)C(=O)N[C@@H]([C@@H](C)O)C(=O)N[C@@H](C)C(=O)N[C@@H]([C@@H](C)O)C(=O)N1)[C@@H](C)O)C(=O)N[C@@H](CC(C)C)C(=O)N1CCC[C@H]1C(=O)N1CCC[C@H]1C(=O)N[C@H](C(=O)N[C@@H](CC(N)=O)C(=O)N[C@H](C(=O)NCC(=O)N[C@@H](CO)C(=O)N[C@@H](CC(N)=O)C(=O)N[C@H](C(=O)N1C[C@H](O)C[C@H]1C(N)=O)[C@@H](C)O)C(C)C)[C@@H](C)O [PD080] (H-ECNTATCATQRLADFLRHSSNNLK([γGlu-C20 diacid])PILPPTNVGSNT[Hyp]-NH2; disulfide 2-7) | 110
3 | CC[C@H](C)[C@H](NC(=O)[C@@H]1CCCN1C(=O)[C@H](CCCCNC(=O)COCCOCCNC(=O)COCCOCCNC(=O)CC[C@H](NC(=O)CCCCCCCCCCCCCCCCCCC(=O)O)C(=O)O)NC(=O)[C@H](CC(C)C)NC(=O)[C@H](CC(N)=O)NC(=O)[C@H](CC(N)=O)NC(=O)[C@H](CO)NC(=O)[C@H](CO)NC(=O)[C@H](Cc1c[nH]cn1)NC(=O)[C@H](CCCNC(=N)N)NC(=O)[C@H](CC(C)C)NC(=O)[C@H](Cc1ccccc1)NC(=O)[C@H](CC(=O)O)NC(=O)[C@H](C)NC(=O)[C@H](CC(C)C)NC(=O)[C@H](CCCNC(=N)N)NC(=O)[C@H](CCC(N)=O)NC(=O)[C@@H](NC(=O)[C@H](C)NC(=O)[C@@H]1CSSC[C@H](NC(=O)[C@@H](N)CCCNC(=N)N)C(=O)N[C@@H](CC(N)=O)C(=O)N[C@@H]([C@@H](C)O)C(=O)N[C@@H](C)C(=O)N[C@@H]([C@@H](C)O)C(=O)N1)[C@@H](C)O)C(=O)N[C@@H](CC(C)C)C(=O)N1CCC[C@H]1C(=O)N1CCC[C@H]1C(=O)N[C@H](C(=O)N[C@@H](CC(N)=O)C(=O)N[C@H](C(=O)NCC(=O)N[C@@H](CO)C(=O)N[C@@H](CC(N)=O)C(=O)N[C@H](C(=O)N1C[C@H](O)C[C@H]1C(N)=O)[C@@H](C)O)C(C)C)[C@@H](C)O [PD081] (H-RCNTATCATQRLADFLRHSSNNLK([AEEA-AEEA-γGlu-C20 diacid])PILPPTNVGSNT[Hyp]-NH2; disulfide 2-7) | 31

The remaining lines, values ahead:

Row | EC50 [pM] | Structure (SMILES)
4 | 38 | CC[C@H](C)[C@H](NC(=O)[C@@H]1CCCN1C(=O)CNC(=O)[C@H](CCCCNC(=O)CC[C@H](NC(=O)CCCCCCCCCCCCCCCCCCC(=O)O)C(=O)O)NC(=O)[C@H](CC(N)=O)NC(=O)[C@H](CC(N)=O)NC(=O)[C@H](CO)NC(=O)[C@H](CO)NC(=O)[C@H](Cc1c[nH]cn1)NC(=O)[C@H](CCCNC(=N)N)NC(=O)[C@H](CC(C)C)NC(=O)[C@H](Cc1ccccc1)NC(=O)[C@H](CC(=O)O)NC(=O)[C@H](C)NC(=O)[C@H](CC(C)C)NC(=O)[C@H](CCCNC(=N)N)NC(=O)[C@H](CCC(N)=O)NC(=O)[C@@H](NC(=O)[C@H](C)NC(=O)[C@@H]1CSSC[C@H](NC(=O)[C@@H](N)CCCNC(=N)N)C(=O)N[C@@H](CC(N)=O)C(=O)N[C@@H]([C@@H](C)O)C(=O)N[C@@H](C)C(=O)N[C@@H]([C@@H](C)O)C(=O)N1)[C@@H](C)O)C(=O)N[C@@H](CC(C)C)C(=O)N1CCC[C@H]1C(=O)N1CCC[C@H]1C(=O)N[C@H](C(=O)N[C@@H](CC(N)=O)C(=O)N[C@H](C(=O)NCC(=O)N[C@@H](CO)C(=O)N[C@@H](CC(N)=O)C(=O)N[C@H](C(=O)N1C[C@H](O)C[C@H]1C(N)=O)[C@@H](C)O)C(C)C)[C@@H](C)O [PD082] (H-RCNTATCATQRLADFLRHSSNNK([γGlu-C20 diacid])GPILPPTNVGSNT[Hyp]-NH2; disulfide 2-7)
5 | 37 | CC[C@H](C)[C@H](NC(=O)[C@@H]1CCCN1C(=O)CNC(=O)[C@H](CCCCNC(=O)COCCOCCNC(=O)COCCOCCNC(=O)CC[C@H](NC(=O)CCCCCCCCCCCCCCCCCCC(=O)O)C(=O)O)NC(=O)[C@H](CC(N)=O)NC(=O)[C@H](CC(N)=O)NC(=O)[C@H](CO)NC(=O)[C@H](CO)NC(=O)[C@H](Cc1c[nH]cn1)NC(=O)[C@H](CCCNC(=N)N)NC(=O)[C@H](CC(C)C)NC(=O)[C@H](Cc1ccccc1)NC(=O)[C@H](CC(=O)O)NC(=O)[C@H](C)NC(=O)[C@H](CC(C)C)NC(=O)[C@H](CCCNC(=N)N)NC(=O)[C@H](CCC(N)=O)NC(=O)[C@@H](NC(=O)[C@H](C)NC(=O)[C@@H]1CSSC[C@H](NC(=O)[C@@H](N)CCCNC(=N)N)C(=O)N[C@@H](CC(N)=O)C(=O)N[C@@H]([C@@H](C)O)C(=O)N[C@@H](C)C(=O)N[C@@H]([C@@H](C)O)C(=O)N1)[C@@H](C)O)C(=O)N[C@@H](CC(C)C)C(=O)N1CCC[C@H]1C(=O)N1CCC[C@H]1C(=O)N[C@H](C(=O)N[C@@H](CC(N)=O)C(=O)N[C@H](C(=O)NCC(=O)N[C@@H](CO)C(=O)N[C@@H](CC(N)=O)C(=O)N[C@H](C(=O)N1C[C@H](O)C[C@H]1C(N)=O)[C@@H](C)O)C(C)C)[C@@H](C)O [PD083] (H-RCNTATCATQRLADFLRHSSNNK([AEEA-AEEA-γGlu-C20 diacid])GPILPPTNVGSNT[Hyp]-NH2; disulfide 2-7)

From patent US20260166128A1, “HUMAN AMYLIN ANALOG, AND DERIVATIVE THEREOF AND USE THEREOF” (priority 2022, published 2026)
